Patent US8329902B2, “Optically pure dihydropyrimidine compounds and their uses for the preparation of a medicament for treatment and prevention of viral diseases” (Beijing Molecule Science And Technology Co., Ltd., priority 2006, dated 2012)

Tests used:
HBV DNA = assay: Antiviral activity: inhibition of HBV DNA in supernatant of HepG 2.2.15 cells (dot blot hybridization); format: cell-based; conditions: Hepatitis B virus, HepG2.2.15, 192 h, 8 days incubation, 50% reduction of type B hepatitis-specific DNA band
Description: The antiviral effection of the compound of the present invention is determined according to the methods described by Sells, et al in (M. A. Sells M. L. Chen G. Proc. Natl. Acad. Sci. 1987, 84, 1005-1009) and Korba, et al (B. E. Korba, J. L. Gerin Antiviral Research 1992, 19, 55-70).
(§1) The antiviral test was carried out in a 96-cell microtiter plate. The first column of the plate only contained a culture medium for growth and HepG 2.2.15 cells, as a control. First, a stock solution (50 mmol) of a test compound was dissolved in DMSO, and further diluted with a culture medium for growth for HepG 2.2.15 cells. Usually, the compound of the present invention was transferred by suction at a test concentration of 100 μg/ml (the first test concentration) to each cell of the second column of the microtiter plate, and then diluted with the culture medium for growth plus 2% fetal bovine serum (25 μL), by 2 times once, up to […] at the maximum.
(§2) Then, 225 μL of a suspension of HepG 2.2.15 cells (5×10^4 cells/ml) in the culture medium fro growth plus 2% fetal bovine serum was added to each pore of the 96-cell microtiter plate.
(§3) The test mixture was incubated under the conditions of 37° C., 5% CO2 for 4 days. Then, the supernatant was removed by suction, and to each pore 225 μL of a new-prepared culture medium was added. Again, the compound of the present invention was added by a solution of 25 μL. The obtained mixture was further incubated for 4 days.
Thereafter, the supernatant was collected, and sucked in vacuum to a 96-cell dot blot chamber covered by nylon film (used in accordance with the directions for use given by the manufacturer).
After the supernatant was transferred onto the nylon film of the dot blot device (as described above), the supernatant of HepG 2.2.15 cells was denaturated (1.5 M NaCl/0.5 M NaOH), neutralized (3 M NaCl/0.5 M Tris. HCl, pH 7.5) and washed (2×SSC). Then, the filter film was kept at 120° C. for 2-4 hours, whereby DNA was baked on the filter film.
Usually, viral DNA of HepG 2.2.15 cells treated on the nylon filter film was detected by using a non-radioactive digoxigenin labelled type B hepatitis-specific DNA probe. Wherein, each time the probe was labelled with digoxigenin, purified and hybridized according to the directions for use given by the manufacturer.
Briefly, pre-hybridization and hybridization were conducted with 5×SSC, 1× blocking agent, 0.1% N-lauroyl sarcosine, 0.02% SDS and 100 μg sperm DNA of black carp. After pre-hybridization at 60° C. for 30 min, a specific hybridization (at 60° C. for 14 hr) was conducted with 20-40 ng/ml digoxigenin labelled denaturated I-BV specific DNA. Then, the filter film was washed, followed by digoxigenin antibody detection for HBV DNA. […]

HepG 2.2.15 cells = assay: Cytotoxicity in HepG 2.2.15 cells (cell morphology by microscope after 8 days, Reed & Muench); format: cell-based; conditions: pathological change of cells after 8 days
Description: as §1, §2, §3
Prior to collection of the supernatant for determination of the antiviral effect, the cytotoxicity variation of HepG 2.2.15 cells was investigated by using optical microscopic technique or biochemical test method (e.g., Alamar Blue dyeing or Trypan Blue dyeing).
The substance-induced change in cytotoxicity in HepG 2.2.15 cells or change in inhibition of the cells could be determined by using, e.g., optical microscopic technique, and expressed by the change of cell morphology. Such substance-induced change, e.g., cell lysis, vacuolus formation or change in cell morphology, in HepG 2.2.15 cells was apparent as compared with the untreated cells. Taking the observed pathological change of cells as index, the pathological change of cells was observed under microscope after 8 days, a complete destroy being indicated as 4; 75% being indicated as 3; 50% being indicated as 2; 25% being indicated as 1; and no pathological change being indicated as 0. The average extents of pathological change of cells and the suppression percentages at various concentrations were calculated. According to Reed & Muench method, a half toxic concentration (TC50) and a maximum non-toxic concentration (TC0) were calculated.
TC50 refers to the concentration of the compound of the present invention when 50% of cells have a similar morphology to the corresponding cells as a control.

Compound	IC50 (HBV DNA) [nM]	TD50 (HepG 2.2.15 cells) [µM]	melting point [°C]
CCOC(=O)C1=C(C)NC(c2nccs2)=N[C@H]1c1ccc(F)cc1Cl [Example 2, (R)-4-(2-chloro-4-fluorophenyl)-6-methyl-2-(2-thiazolyl)-1,4-dihydropyrimidin-5-ethylcarboxylate]	< 800	>62.9	
CC1=C(C(=O)OCC(F)(F)F)[C@H](c2ccc(F)cc2Cl)N=C(c2nccs2)N1 [Example 3, (R)-4-(2-chloro-4-fluorophenyl)-6-methyl-2-(2-thiazolyl)-1,4-dihydropyrimidin-5-trifluoroethylcarboxylate]	5100	37.4	
CC1=C(C(=O)N[C@H](C)c2ccccc2)[C@H](c2ccc(F)cc2Cl)N=C(c2nccs2)N1			224 to 226
CCOC(=O)C1=C(C)NC(c2cncs2)=N[C@H]1c1ccc(F)cc1Cl [Example 7, (R)-4-(2-chloro-4-fluorophenyl)-6-methyl-2-(5-thiazolyl)-1,4-dihydropyrimidin-5-ethylcarboxylate]	1800	>12.5	
CCOC(=O)C1=C(C)NC(c2c(F)cc(F)cc2F)=N[C@H]1c1ccc(F)cc1Cl [Example 5, (R)-4-(2-chloro-4-fluorophenyl)-6-methyl-2-(2,4,6-trifluorophenyl)-1,4-dihydropyrimidin-5-ethylcarboxylate]	1300	13.8	162 to 165
